Laboratory results as given in patent US20240103005A1, “N-ACRYLOYLINDOLES AND METHODS OF USE” (The University of Hong Kong, priority 2022, published 2024).

Assays:
HepG2 cells = test: MTT cell viability assay; assay type: cell-based
Procedure: MTT Cell Viability Assay of Cells Treated with NAIA-5
HepG2 cells were plated on 96-well plates (Corning, 3904) at 30,000 cells per well in 100 μL of complete medium and allowed to grow overnight. The cells were then incubated with DMSO solvent control or NAIA-5 at indicated concentrations for 1 h. The treated cells were then added with 10 μL of MTT solution in PBS (5 mg/mL) and incubated in dark at 37° C. with 5% CO2 for 4 h. After that, 100 μL of SDS solution in PBS ([…] with 0.01M HCl) was added for cell lysis. The plates were kept in dark overnight and cell viability were assayed by the absorption at 580 nm on Perkin Elmer Victor 3 ([…]).

[1] = Stability in aqueous buffer solution over time (LC-MS); assay type: physicochemical
Procedure: Stability of NAIA-5 in Aqueous Buffer Solution Over Time
NAIA-5 (10 μM) was dissolved in PBS/MeOH solution mixture (4:1, v/v; 500 μL) and stay at room temperature. At predetermined time intervals, an aliquot of the reaction mixture (10 μL) was sent for LC-MS analysis on Waters Autopurification System using a SunFire C18 HPLC column (50×4.6 mm with 5 μm diameter particles, Waters). Separation was achieved by gradient elution from 5% to 100% MeCN in water (constant 0.1 vol % formic acid) over 4 min, isocratic elution with 100% MeCN (with 0.1 vol % formic acid) from 4 to 8 min and returning to 5% MeCN in water (with 0.1 vol % formic acid) and equilibrated for 2 min. Selected ion chromatograms, with m/z=325 corresponding to [NAIA-5+H]^+, were extracted and analyzed by integrating the area under curve.
As fast-reacting probes are often susceptible to hydrolysis, we sought to investigate the aqueous stability of NAIA-C5 amide. […] Taking the excellent reaction kinetics and a mere 14% degradation in 30 min into account, NAIA-C5 amide was considered to be a useful tool in cysteine profiling (FIG. 17C and FIG. 17F).

HepG2 cell lysates = test: MS-based ABPP to identify liganded cysteines in HepG2 cell lysates; assay type: biochemical, human; settings: 10 μM, 1 h
Procedure: MS-Based ABPP Experiments to Identify Liganded Cysteines in HepG2 Cell Lysates by NAIA-5 or IAA.
HepG2 cells were lysed in PBS by sonication. After BCA assay and protein normalization, HepG2 cell lysates in PBS (2 mg/mL, 2 mL) were incubated with NAIA-5 and IAA (10 μM), respectively, at room temperature for 1 h with vortexing. Then, the samples were incubated with a master mix solution for CuAAC reaction, containing CuSO4, TBTA, DTB-PEG-azide and TECP (final concentrations are 1 mM, 100 μM, 100 μM and 1 mM respectively). After incubation at room temperature for 1 h with vortexing, pre-chilled acetone (12 mL) was added to the samples and proteins were allowed to precipitate out by storing at −20° C. overnight. The samples were centrifuged at 5,000 g at 4° C. for 10 min, and the supernatant was discarded. The protein pellets labeled by NAIA-5 and IAA were then combined and washed with pre-chilled methanol twice. The protein pellets were then re-dispersed in 1.2% SDS in PBS (w/v), followed by heating at 80° C. for 5 min. Any insoluble solids were discarded by centrifugation at 6,500 g for 5 min, and the supernatant were transferred to PBS solution containing Pierce™ Streptavidin Agarose beads (20349; Thermo Scientific) with final concentration of SDS equal to 0.2% (w/v). The samples and beads were incubated at 4° C. with rotation overnight. […]

time stable in PBS solution ([1]; pH 7.4, absence of Cys): ≥ 3 h
Structure (SMILES): C#CCCCCNC(=O)COc1ccc2c(ccn2C(=O)C=C)c1 [NAIA-5]
cellular toxicity (in words) (HepG2 cells; 10 μM for 1 h): no significant cellular toxicity was found | IC50 (HepG2 cells; MTT, 1 h incubation, read-out: IC50 (cytotoxicity)): > 40 µM | cell viability (in words) (HepG2 cells; treatment for 1 h): no significant changes in viability of HepG2 cells | change of compound level in aqueous buffer solution over time (in words) ([1]; 10 μM, PBS/MeOH 4:1, room temperature): No significant changes in NAIA-5 level in the aqueous buffer solution over time | off-target labeling onto other amino acids (HepG2 cell lysates): less undesired off-target labeling onto other amino acids as compared to IAA
